What was measured:
[1] = molecular target: T1, Xenopus internal domain Mcm10 (xMcm10-ID) (Xenopus laevis, UniProt Q5EAW4); experiment: Fluorescence polarization HTS and dose-response assay, 5′-6FAM probe binding to xMcm10-ID; conditions: dose-response with repurchased or purchased compound
T1 construct: xMcm10-ID (amino acid residues 229 to 427); 6xHis (HRV 3C site) (N, cleaved yes); made in house; host or cells: E. coli BL21(DE3)
T1 sequence (Q5EAW4 229-427): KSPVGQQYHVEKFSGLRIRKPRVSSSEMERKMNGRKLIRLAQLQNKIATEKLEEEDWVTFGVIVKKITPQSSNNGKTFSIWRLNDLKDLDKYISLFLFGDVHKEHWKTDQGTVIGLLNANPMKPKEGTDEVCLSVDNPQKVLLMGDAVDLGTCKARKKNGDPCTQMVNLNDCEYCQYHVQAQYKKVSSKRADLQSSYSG
Experimental: A fluorescence polarization (FP) HTS assay was established to detect inhibitors of the binding of the 5′-6FAM 10-mer oligo probe to Mcm10. Test compounds dissolved in DMSO were added to 384-well plates (Corning 4514) using an Echo 550 acoustic dispenser (final DMSO 0.1%) to achieve a final single point screening concentration of 10 µM. Then 10 µl of 2× Xenopus internal domain Mcm10 (xMcm10-ID, final concentration 2 µM) in binding buffer (20 mM Tris HCl, 100 mM NaCl, 5% glycerol, and 0.01% triton, pH 7.5) was added using the Combi nL Multidrop dispenser. Finally, 10 µl of 2× 5′-6FAM DNA (final 12.5 nM) in binding buffer was added using the Multidrop. DMSO (0.1%, high signal) and probe only (low signal) controls were included on every plate. Plates were mixed for 2 min, incubated for 60 min at RT in the dark, and read on a CLARIOstar multimode plate reader (excitation: 482-16, emission: 530-40, dichroic filter: LP504).
The LOPAC pilot screen identified the sulfhydryl reagent 4-chloromercuribenzoic acid as an inhibitor in the fluorescence polarization (FP) assay. As there was no known Mcm10 inhibitor, 4-chloromercuribenzoic acid (30 μM) was used as a positive control on initial screening plates. Following the discovery of suramin as a Mcm10 inhibitor, suramin (7 μM) was used as a positive control on subsequent screening plates. To confirm activity, screening hits were tested in dose response experiments (8 concentrations in duplicate) using xMcm10-ID. Similar dose response experiments were conducted with suramin and its analogs to confirm activity for hMcm10-ID (1 μM) and xMcm10-FL (2 μM) and to determine selectivity relative to RPA70AB (0.4 μM). Saturation experiments for each protein were conducted using increasing concentrations of protein with a fixed probe concentration (12.5 nM). FP was measured in mP units, and ∆mP values for each well were calculated as the difference between the measured mP and the average of the “probe only” controls. […] The parallel and perpendicular mP values were also used to calculate total fluorescence intensity (TFI) determined by the sum of parallel mP + (2 x perpendicular mP). TFI was used to detect fluorescence interference by compounds [1]. […] IC50 values were calculated using the four parameter logistic equation in Prism 6.0 (GraphPad). Ki values were obtained using an online Ki calculator according to the equations of Nikolovska-Coleska (http://sw16.im.med.umich.edu/soft-ware/calc_ki/). KD values were calculated using the one site or two site binding equations in Prism 6.0 (GraphPad).

[2] = tested on: DNA replication of sperm chromatin in Xenopus egg extracts; experiment: In vitro DNA replication assay in Xenopus S-phase egg extracts ([α-32P]dGTP incorporation); format: biochemical; conditions: 10, 50, 150 and 300 µM
Experimental: Xenopus egg extracts were prepared according to the method of Murray. Replication of sperm chromatin in S-phase egg extracts was monitored as previously described. Compounds identified by HTS were added to replication reactions immediately prior to addition of [α-^32P]dGTP (Perkin Elmer BLU514H250UC).
To determine whether the four remaining confirmed HTS hits affected DNA replication, in vitro replication assays were performed using Xenopus S-phase egg extracts incubated with sperm chromatin [25, 34]. DNA replication was measured in the presence of bronopol, fumarprotocetraric acid, iriginol and suramin or DMSO by the incorporation of [α-^32P]dGTP. […] For this reason, further studies focused on suramin alone.
Figure 1. Suramin inhibits DNA replication in an in vitro Xenopus replication assay. HTS hits were evaluated for inhibition of [α-^32P]dGTP incorporation into DNA using a cell-free extract prepared from Xenopus eggs at increasing concentrations (10, 50, 150 and 300 µM indicated by black triangle from right to left). No chemical (–) and DMSO were used as negative controls for replication inhibition (far left and far right lanes).

Row | inhibition of 5′-6FAM probe binding to xMcm10-ID (result in words) [1] | SMILES | DNA replication, [α-32P]dGTP incorporation (result in words) [2]
1 | active | O=[N+]([O-])C(Br)(CO)CO [bronopol] | only suramin exhibited a dose-dependent decrease in DNA replication
2 | active | Cc1cc(O)c(C=O)c2c1C(=O)Oc1c(COC(=O)/C=C/C(=O)O)c(O)c(C(=O)O)c(C)c1O2 [fumarprotocetraric acid] | only suramin exhibited a dose-dependent decrease in DNA replication

From publication PMC6731595, “The anti-parasitic agent suramin and several of its analogues are inhibitors of the DNA binding protein Mcm10” (Open Biology, 2019)
